Source: patent US5164295A, “Method for identifying amyloid protein-extracellular matrix protein affinity altering compounds” (The Upjohn Company, priority 1991, dated 1992)

Key:
[1] = molecular target: T1, HSPG binding to AAP695 /s (Homo sapiens, UniProt P05067); experiment: Effect of test compounds on intact HSPG binding to immobilized AAP695 /s (ELISA); conditions: for Activity: binding of intact HSPG, percentage ± SD of control: AAP695 /S, HSPG 2 μg/ml; for HSPG binding, % of control: AAP695
T1 construct: maintained the entire extracellular portion of the AAP; made in house; host or cells: insect cells (recombinant baculovirus)
Experimental: (§1) The assay comprised immobilizing AAP695 /s which was then exposed to free HSPG in the absence or presence of test compounds. Other aspects of the assay included exposing free HSPG to either immobilized AAP751 /s, or AAP770 /s, each in the absence or presence of test compounds. The assay was also performed with fibronectin as the immobilized protein in order to provide a positive control. In each case, a series of concentrations of HSPG and test compounds was used. Additionally, to determine whether or not the carbohydrate moiety of HSPG was involved in the binding to immobilized components, the carbohydrate moiety of HSPG was removed and assays were performed using the carbohydrate-free HSPG core protein. The test compounds used in experiments described here include heparin, dextran sulfate, chondroitin sulfate, dermatan sulfate, fibronectin, gelatin, bovine serum albumin (BSA), Ca^++ (CaCl2), Mg^++ (MgCl2), Mn^++ (MnCl2), Co^++ (Co(NO3)2), and Zn^++ (ZnCl2).
(§2) The assay used in studying the interaction between HSPG and protein ligands was an ELISA technique. Briefly, polystyrene micro-titer plates (Linbro, Flow Lab Inc.) were coated with a 100 μl solution, containing 1 μg/ml of the protein of interest (one of the three forms of AAP or fibronectin) in 20 mM NaHCO3 buffer pH 9.6. After incubation overnight at 4° C., the plates were rinsed with 0.15M NaCl, 20 mM Tris-Cl pH 7.5 (TBS). The plates were then incubated with 150 μl of 1% BSA in TBS for 2 hours at 37° C. to block the residual hydrophobic surface on the wells. After rinsing with TBS containing 0.05% (w/v) Tween 20 (TBS-Tween), 100 μl of various concentrations of HSPG in TBS-Tween were added. The plates were left overnight at 4° C., to permit maximum binding of HSPG to the coated proteins. The plates were then washed extensively and incubated for 2 hours at 37° C., with 100 μl of anti-HSPG diluted in TBS-Tween containing 0.1% BSA. The plates were washed again and incubated for another 2 hours with 100 μl of goat anti-rabbit-IgG conjugated with alkaline phosphatase (1:2000 dilution) in TBS-Tween containing BSA as above. Finally, after further washing, the bound antibodies were detected by adding an alkaline phosphatase substrate solution (100 μl) containing 2 mg/ml p-nitrophenyl phosphate, 0.1 mM ZnCl2, 1 mM MgCl2 and 100 mM glycine pH 10. The plates were left at room temperature for 15-120 minutes depending on the protein tested. The enzyme reaction was stopped by addition of 50 μl of 2M NaOH. The absorbance of the released p-nitrophenol was measured at 405 nm with a Titertek Multiscan/MCC 340 (Flow Lab. Ltd.). The amounts of HSPG bound were determined by the net OD405 after substracting the OD from the blank wells in which the HSPG incubation step was omitted. When the actual amounts of HSPG bound were to be calculated, a set of standards (0.05-50 ng/well) of HSPG in NaHCO3 buffer were pre-coated into wells on the same plates as the test proteins. The incubations proceeded as described above omitting the incubation of the HSPG solution with the HSPG standard coated wells. The actual amounts of HSPG bound to the test proteins were calculated from the OD405 standard curve produced by the HSPG standards using a Titersoft II E.J.A. software program (Flow Lab. Ltd.).
(§3) Heparin and dextran sulfate, respectively, were each used as test compounds to determine their effect on the HSPG binding to AAP forms and fibronectin. Various concentrations of heparin or dextran sulfate were added together with a constant amount of HSPG to wells coated with AAPs for fibronectin.

[2] = molecular target: T2, HSPG binding to AAP751 /s (Homo sapiens, UniProt P05067); experiment: Effect of test compounds on intact HSPG binding to immobilized AAP751 /s (ELISA); design: effect of increasing concentration on degree of HSPG binding to AAP751 /s: dose or concentration left out as unconfirmed; conditions: for Activity: binding of intact HSPG, percentage ± SD of control: AAP751 /S, HSPG 2 μg/ml; for HSPG binding, % of control: AAP751
T2 construct: maintained the entire extracellular portion of the AAP; made in house; host or cells: insect cells (recombinant baculovirus)
Experimental: as §1, §2, §3

[3] = system: HSPG binding to fibronectin; experiment: Effect of test compounds on intact HSPG binding to immobilized fibronectin (ELISA); design: species or system bovine; effect of increasing concentration on degree of HSPG binding to fibronectin: dose or concentration left out as unconfirmed; conditions: for Activity: binding of intact HSPG, percentage ± SD of control: Fibronectin, HSPG 2 μg/ml; for inhibition of HSPG binding to immobilized fibronectin: test compound 50 μg/ml; for HSPG binding, % of control: fibronectin
Experimental: as §1
Fibronectin (from bovine plasma), heparin (grade II from porcine intestinal mucosa, average molecular weight=[…]), heparan sulfate, chondroitin sulfate, dextran sulfate, BSA, and alkaline phosphatase substrate were obtained from Sigma, St. Louis, Mo. Alkaline phosphatase conjugated goat anti-rabbit IgG was obtained from Boehringer-Manneheim, and heparitinase from ICN Biochemicals.
as §2, §3

[4] = system: HSPG binding to AAP proteins and fibronectin; experiment: Effect of test compounds on HSPG binding, stated collectively for the immobilized proteins; conditions: for effect on HSPG binding to any AAP protein tested (negated sentence: 'Neither ... had any effect'): even at 4000 μg/ml
Experimental: as §1, §2
In addition to test compounds described above, other compounds were tested to determine their effect upon HSPG-AAP binding.

[5] = test compound 500 μg/ml (Table II)

In the case of [Ca+2].[Cl-].[Cl-] [CaCl2], the “Activity: binding of intact HSPG, percentage ± SD of control” value (“Activity … percentage ± SD of control” for short) ([1]; addition 4 mM) is reported as 92.5 ± 7.7%, the “Activity … percentage ± SD of control” value ([2]; addition 4 mM) is reported as 105.5 ± 3.5% and the “Activity … percentage ± SD of control” value ([3]; addition 4 mM) is reported as 101.5 ± 2.1%. For the same molecule, the “effect of divalent metal ion on HSPG binding” value (“effect of divalent metal ion” below) ([4]; 3 mM) was “unaffected”.

With O=[N+]([O-])[O-].O=[N+]([O-])[O-].[Co+2] [Co (NO3), Co(NO3)2] the “Activity … percentage ± SD of control” value ([1]; addition 0.1 mM) was 97.3 ± 2.5%, the “Activity … percentage ± SD of control” value ([2]; addition 0.1 mM) was 91 ± 8.5% and the “Activity … percentage ± SD of control” value ([3]; addition 0.1 mM) was 100 ± 14%. The “effect of divalent metal ion” value ([4]; 0.1 mM) was “unaffected”.

For [Cl-].[Cl-].[Mg+2] [MgCl2], the “Activity … percentage ± SD of control” value ([1]; addition 10 mM) was 102.5 ± 6.4%, the “Activity … percentage ± SD of control” value ([2]; addition 10 mM) was 102.5 ± 7.8% and the “Activity … percentage ± SD of control” value ([3]; addition 10 mM) was 105 ± 9.9%. For the same molecule, the “effect of divalent metal ion” value ([4]; 10 mM) was “unaffected”.

For [Cl][Mn][Cl] [MnCl2], the “Activity … percentage ± SD of control” value ([1]; addition 4 mM) was 107 ± 18.3%, the “Activity … percentage ± SD of control” value ([2]; addition 4 mM) was 106 ± 19.7% and the “Activity … percentage ± SD of control” value ([3]; addition 4 mM) was 101.5 ± 9.2%. For the same molecule, the “effect of divalent metal ion” value ([4]; 4 mM) was “unaffected”.

With [Cl-].[Cl-].[Zn+2] [ZnCl2] the “Activity … percentage ± SD of control” value ([1]; addition 0.1 mM) was 31 ± 8.1%, the “inhibition of HSPG binding to AAP695 /s” value ([1]; test compound 0.1 mM) was 70% and the “Activity … percentage ± SD of control” value ([2]; addition 0.1 mM) was 85.5 ± 9%. For the same molecule, the “Activity … percentage ± SD of control” value ([3]; addition 0.1 mM) was 44 ± 14.6% and the “inhibition of HSPG binding to fibronectin” value ([3]; test compound 0.1 mM) was 55%.

In the case of “Fibronectin: Fibronectin from bovine plasma (Sigma), added in solution as test compound”, the “Activity … percentage ± SD of control” value ([1]; addition 50 μg/ml) is reported as 76.3 ± 9.5%, the “Activity … percentage ± SD of control” value ([2]; addition 50 μg/ml) is reported as 103.7 ± 14.5% and the “Activity … percentage ± SD of control” value ([3]; addition 50 μg/ml) is reported as 33.4 ± 18.4%. For the same molecule, the “inhibition of HSPG binding to immobilized fibronectin” value [3] was 65% and the “interference with HSPG binding to the AAPs” value ([4]; test compound 50 μg/ml in solution, the AAPs) was “only moderately interferes”.

In the case of Gelatin, the “Activity … percentage ± SD of control” value ([1]; addition 50 μg/ml) is reported as 50.5 ± 18.4%, the “inhibition of HSPG binding to AAP695 /s” value ([1]; test compound 50 μg/ml) is reported as 50% and the “Activity … percentage ± SD of control” value ([2]; addition 50 μg/ml) is reported as 60.2 ± 8.3%. The “inhibition of HSPG binding to AAP751 /s” value ([2]; test compound 50 μg/ml) was 40%, the “Activity … percentage ± SD of control” value ([3]; addition 50 μg/ml) was 28.5 ± 16.5% and the “inhibition of HSPG binding to immobilized fibronectin” value [3] was 70%.

With chondroitin sulfate the “Activity … percentage ± SD of control” value ([1]; addition 4 mg/ml) was 110 ± 15.3%, the “Activity … percentage ± SD of control” value ([2]; addition 4 mg/ml) was 110 ± 24.2% and the “Activity … percentage ± SD of control” value ([3]; addition 4 mg/ml) was 107 ± 10.8%. For the same molecule, the “effect on HSPG binding to any AAP protein tested (negated sentence: 'Neither ... had any effect')” value [4] was “had any effect”.

With dermatan sulfate the “Activity … percentage ± SD of control” value ([1]; addition 4 mg/ml) was 121 ± 14%, the “Activity … percentage ± SD of control” value ([2]; addition 4 mg/ml) was 127 ± 30% and the “Activity … percentage ± SD of control” value ([3]; addition 4 mg/ml) was 107 ± 20.6%. The “effect on HSPG binding to any AAP protein tested (negated sentence: 'Neither ... had any effect')” value [4] was “had any effect”.

In the case of dextran sulfate, the “mode of inhibition of HSPG binding to AAP695 /s” value [1] is reported as “probably competitive”, the “Activity … percentage ± SD of control” value ([1]; addition 500 μg/ml) is reported as 8.5 ± 2.4% and the “HSPG binding, % of control” value ([1]; test compound 31.2 μg/ml) is reported as 14%. For the same molecule, the “HSPG binding, % of control” value ([1]; test compound 62.5 μg/ml) was 11%, the “HSPG binding, % of control” value ([1]; test compound 125 μg/ml) was 9% and the “HSPG binding, % of control” value ([1]; test compound 250 μg/ml) was 11%. The “HSPG binding, % of control” value [1, 5] was 11%, the “inhibition of HSPG binding to AAP695 /s” value ([1]; test compound 32 μg/ml) was “about 85%” and the “mode of inhibition of HSPG binding to AAP751 /s” value [2] was “noncompetitive”. The “Activity … percentage ± SD of control” value ([2]; addition 500 μg/ml) was 63 ± 8.6%, the “HSPG binding, % of control” value ([2]; test compound 31.2 μg/ml) was 74% and the “HSPG binding, % of control” value ([2]; test compound 62.5 μg/ml) was 71%. For the same molecule, the “HSPG binding, % of control” value ([2]; test compound 125 μg/ml) was 67%, the “HSPG binding, % of control” value ([2]; test compound 250 μg/ml) was 68% and the “HSPG binding, % of control” value [2, 5] was 63%. The “effect of increasing concentration on degree of HSPG binding to AAP751 /s” value ([2]; concentration increased) was “did not further decrease”, the “inhibition of HSPG binding to AAP751 /s” value ([2]; test compound 32 μg/ml) was 30% and the “mode of inhibition of HSPG binding to fibronectin” value [3] was “noncompetitive”. For the same molecule, the “Activity … percentage ± SD of control” value ([3]; addition 500 μg/ml) was 71 ± 10.8%, the “effect of increasing concentration on degree of HSPG binding to fibronectin” value ([3]; concentration increased) was “did not further decrease” and the “HSPG binding, % of control” value ([3]; test compound 31.2 μg/ml) was 67%. For the same molecule, the “HSPG binding, % of control” value ([3]; test compound 62.5 μg/ml) was 70%, the “HSPG binding, % of control” value ([3]; test compound 125 μg/ml) was 68% and the “HSPG binding, % of control” value ([3]; test compound 250 μg/ml) was 63%. For the same molecule, the “HSPG binding, % of control” value [3, 5] was 60% and the “inhibition of HSPG binding to fibronectin” value ([3]; test compound 32 μg/ml) was 30%.
